Experimental data: patent US10927136B2, “Phosphorus prodrugs of pyrazolo-substituted pyrimidine sGC stimulators” (Cyclerion Therapeutics, Inc., priority 2016, dated 2021)

Assays:
[1] = Ex-vivo rat intestinal fluid stability assay; type: in vitro ADME; parameters: half-life: dose or concentration left out as unconfirmed; settings: 37° C.; for prodrug converted into its parent drug: after 30 minutes of incubation; for half-life: rat intestinal (jejunum) fluid, read-out: disappearance half-life (T1/2)
Method: Phosphate prodrugs disclosed herein were designed to be cleaved by alkaline phosphatase(s) that are present on the apical brush-border membranes of the intestine, after which the more hydrophobic parent compound is readily absorbed. Phosphatases are also present in the liver and in the systemic circulation. In order to test the speed of cleavage of the prodrug into the parent drug, […] solutions of each of the test compounds were incubated in rat intestinal (jejunum) fluid. Samples were taken at times=0, 5, 15, 30 and 60 min and the mixtures were quenched by the addition of acetonitrile containing an internal standard. Samples were analyzed by full scan LC/MS. The following protocol was used:
10 mM DMSO stock solutions were thawed or prepared for the positive control (Enalapril) and each test article. Internal standard (IS) crash solution in acetonitrile (ACN) with 20 ng/ml of Compound Z, depicted below, was prepared. Stock (250 uM) was prepared from 10 mM in 50/50 acetonitrile/H2O. Rat intestinal fluid vials were thawed in a water bath at rt.
In a 96-well, 1 ml plate, 48 uL of rat intestinal fluid was aliquoted in triplicate for each time point. The t0 (“0 min”) time point was prepared separately by adding 450 ul of IS crash solution to 48 ul of intestinal fluid, then adding 2 uL of test compound. 2 ul of the 250 uM substock was added to initiate the reaction at 5 min, 15 min, 30 min, and 60 min. The plate prepared in the above steps was covered with a plastic or foil seal and was set in the 37° C. incubator, lightly shaking. For each time point, 450 ul of IS crash solution was added to quench the reaction. The plates were centrifuged at 4000 RPM for 10 minutes at 4° C. 50 ul of supernatant was transferred into 50 ul of H2O and analyzed using LC/MS.
The disappearance of the prodrug and the conversion to the parent were monitored over time.

[2] = cited from earlier work
[3] = known; cited from earlier work
[4] = human microsomes, after 15 min; cited from earlier work

With `O=P(O)(O)OC1(CNc2nc(-c3cc(-c4ccon4)n(Cc4ccccc4F)n3)ncc2F)CCOCC1` [Compound I-3] the “prodrug converted into its parent drug” value [1] was “about 25%” and the prodrug remaining uncleaved ([1]; after 60 minutes of incubation) was “less than 10%”.
In the case of `O=P(O)(O)OC(Cn1cncn1)(Cn1cncn1)c1ccc(F)cc1F` [fosfluconazole], the “human half-life (from published data)” value [2] is listed as 90 to 150 min, the prodrug remaining uncleaved ([1]; after 60 minutes of incubation) is listed as “About 80%” and the half-life [1] is listed as 211 min. For the same compound, the “cleavage to the parent drug in vivo” value [3] was “known to cleave slowly to the parent drug in vivo”.
In the case of `O=C1NC(c2ccccc2)(c2ccccc2)C(=O)N1COP(=O)(O)O` [fosphenytoin], the “human half-life (from published data)” value [2] is given as 8 to 15 min, the “prodrug converted into its parent drug” value [1] is given as “More than 80%” and the prodrug remaining uncleaved ([1]; after 60 minutes of incubation) is given as “no prodrug could be detected”. For the same compound, the half-life [1] was 5 min and the “cleavage to the parent drug in vivo” value [3] was “known to cleave to the parent drug quickly in vivo”.
For `COc1cc(Nc2ncc(F)c(Nc3ccc4c(n3)N(COP(=O)(O)O)C(=O)C(C)(C)O4)n2)cc(OC)c1OC` [fostamatinib], the “quantifiable fostamatinib in subjects” value ([2]; human clinical trials, oral dosing, after the 2-hour time point) is given as “no quantifiable fostamatinib was observed”, the “prodrug converted into its parent drug” value [1] is given as “About 50%” and the “prodrug converted into its parent drug / cleaved” value ([1]; after 60 minutes of incubation) is given as “About 80%”. For the same compound, the half-life [1] was 34 min, the “cleavage to the parent drug in vivo” value [3] was “known to cleave to the parent drug quickly in vivo” and the hydrolysis of prodrug [4] was “fully hydrolized”.
